The values that follow come from ChEMBL document CHEMBL1201862, “PubChem BioAssay data set” (2004).

One assay addresses T1, Hexokinase HKDC1 (Homo sapiens, UniProt Q2TB90).
T1 sequence (Q2TB90 whole entry): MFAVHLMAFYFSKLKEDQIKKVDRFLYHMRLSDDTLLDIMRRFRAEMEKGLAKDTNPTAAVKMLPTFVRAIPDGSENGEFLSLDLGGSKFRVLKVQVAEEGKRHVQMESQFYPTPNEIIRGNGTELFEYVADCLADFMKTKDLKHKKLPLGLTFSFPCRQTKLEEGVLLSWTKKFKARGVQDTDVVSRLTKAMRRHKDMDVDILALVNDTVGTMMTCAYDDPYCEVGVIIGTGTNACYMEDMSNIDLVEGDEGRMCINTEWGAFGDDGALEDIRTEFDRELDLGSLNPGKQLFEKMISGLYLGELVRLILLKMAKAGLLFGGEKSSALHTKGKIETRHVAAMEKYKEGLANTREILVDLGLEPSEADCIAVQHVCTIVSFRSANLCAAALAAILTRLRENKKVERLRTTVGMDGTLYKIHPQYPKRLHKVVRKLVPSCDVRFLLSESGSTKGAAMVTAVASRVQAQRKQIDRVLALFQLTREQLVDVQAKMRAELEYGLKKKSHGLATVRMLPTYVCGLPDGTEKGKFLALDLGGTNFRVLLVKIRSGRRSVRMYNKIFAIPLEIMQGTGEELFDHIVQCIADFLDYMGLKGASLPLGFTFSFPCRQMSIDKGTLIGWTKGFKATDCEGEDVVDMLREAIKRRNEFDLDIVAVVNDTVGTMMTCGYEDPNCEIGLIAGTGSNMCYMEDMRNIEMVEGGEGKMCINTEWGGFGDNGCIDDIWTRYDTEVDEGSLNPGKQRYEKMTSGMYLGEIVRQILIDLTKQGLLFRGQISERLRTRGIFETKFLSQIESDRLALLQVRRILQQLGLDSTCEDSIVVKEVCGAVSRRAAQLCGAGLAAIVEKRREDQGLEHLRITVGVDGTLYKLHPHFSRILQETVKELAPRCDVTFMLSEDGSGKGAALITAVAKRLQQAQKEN
Briefly: HKDC1 hexokinase activators, dose response, biochemical, W721R variant (AID 504730). It is filed as functional.

A short description of assay [1]: Luminescence Cell-Based Dose Response HTS to Identify Activators of Luciferase Translation or Activity in H4 […] Cells. [Related pubchem assays: 1829 (Project Summary), 1814 (Primary HTS)]. The class given is functional.
Assay [2] can be described thus: Artemis endonuclease inhibitor potency, dose response, biochemical, fluorescence intensity (AID 720701).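 Note: Artemis endonuclease enzyme.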 The class given is functional.
Assay [3] has as its target T2, Nuclear receptor subfamily 0 group B member 1 (Homo sapiens, UniProt P51843).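 Note: HEK293T cells transfected with SF-1 and DAX-1 plus StAR promoter luciferase reporter.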
T2 sequence (P51843 whole entry): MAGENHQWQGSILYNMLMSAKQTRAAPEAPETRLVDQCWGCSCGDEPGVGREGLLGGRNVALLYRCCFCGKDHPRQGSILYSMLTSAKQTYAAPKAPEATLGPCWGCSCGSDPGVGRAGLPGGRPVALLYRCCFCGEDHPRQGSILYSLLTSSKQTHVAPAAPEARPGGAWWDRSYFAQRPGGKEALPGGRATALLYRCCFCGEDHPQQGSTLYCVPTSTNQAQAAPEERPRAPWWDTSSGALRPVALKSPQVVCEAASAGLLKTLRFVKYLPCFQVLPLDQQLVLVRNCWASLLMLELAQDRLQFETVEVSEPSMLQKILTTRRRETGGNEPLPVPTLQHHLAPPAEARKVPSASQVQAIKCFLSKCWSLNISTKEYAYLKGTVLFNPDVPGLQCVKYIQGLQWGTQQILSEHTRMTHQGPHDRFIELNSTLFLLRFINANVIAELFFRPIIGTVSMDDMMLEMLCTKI
It is filed as functional, cell-based.

For the next assay, the target named is T3, Caspase-3 (Homo sapiens, UniProt P42574).
T3 sequence (P42574 whole entry): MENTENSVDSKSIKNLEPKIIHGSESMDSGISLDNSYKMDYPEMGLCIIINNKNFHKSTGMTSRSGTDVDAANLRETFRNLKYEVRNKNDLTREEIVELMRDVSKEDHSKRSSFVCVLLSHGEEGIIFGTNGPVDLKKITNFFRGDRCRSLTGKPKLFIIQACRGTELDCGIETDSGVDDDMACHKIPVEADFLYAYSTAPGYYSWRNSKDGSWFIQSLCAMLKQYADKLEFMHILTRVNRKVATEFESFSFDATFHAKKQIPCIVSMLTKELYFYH
The assay can be described thus: SAR Analysis of small molecule inhibitors of Sentrin-specific proteases (SENPs) using a Caspase-3 Selectivity assay. [Related pubchem assays (depositor defined):AID2540, AID2599, AID434973, AID489001]. The class given is functional.

The next assay has as its system HEK293. Briefly: cells. It is filed as functional, cell-based. To be noted: Homo sapiens.
In assay [4] the target is Cyclin-dependent kinase 1 (Homo sapiens, UniProt P06493). The class given is functional.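 Note: Kinome-wide panel profiling, with the target listed as panel member CDC2.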
Chain of Cyclin-dependent kinase 1 (P06493 whole entry): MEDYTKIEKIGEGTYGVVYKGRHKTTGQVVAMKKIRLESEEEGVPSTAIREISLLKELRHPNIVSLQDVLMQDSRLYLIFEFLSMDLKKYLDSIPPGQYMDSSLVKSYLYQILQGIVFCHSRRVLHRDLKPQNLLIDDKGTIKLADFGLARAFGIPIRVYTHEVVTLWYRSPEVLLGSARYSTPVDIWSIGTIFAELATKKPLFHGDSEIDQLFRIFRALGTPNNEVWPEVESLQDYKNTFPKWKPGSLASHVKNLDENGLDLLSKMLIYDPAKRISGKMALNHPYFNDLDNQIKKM
Assay [5] concerns the target Tyrosine-protein kinase Lck (Homo sapiens, UniProt P06239). It is filed as functional.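 Note: lck was assayed as one member of a kinase panel.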
Assay [6] deals with Dual specificity protein kinase CLK2 (Homo sapiens, UniProt P49760). It is filed as functional.
Chain of Dual specificity protein kinase CLK2 (P49760 whole entry): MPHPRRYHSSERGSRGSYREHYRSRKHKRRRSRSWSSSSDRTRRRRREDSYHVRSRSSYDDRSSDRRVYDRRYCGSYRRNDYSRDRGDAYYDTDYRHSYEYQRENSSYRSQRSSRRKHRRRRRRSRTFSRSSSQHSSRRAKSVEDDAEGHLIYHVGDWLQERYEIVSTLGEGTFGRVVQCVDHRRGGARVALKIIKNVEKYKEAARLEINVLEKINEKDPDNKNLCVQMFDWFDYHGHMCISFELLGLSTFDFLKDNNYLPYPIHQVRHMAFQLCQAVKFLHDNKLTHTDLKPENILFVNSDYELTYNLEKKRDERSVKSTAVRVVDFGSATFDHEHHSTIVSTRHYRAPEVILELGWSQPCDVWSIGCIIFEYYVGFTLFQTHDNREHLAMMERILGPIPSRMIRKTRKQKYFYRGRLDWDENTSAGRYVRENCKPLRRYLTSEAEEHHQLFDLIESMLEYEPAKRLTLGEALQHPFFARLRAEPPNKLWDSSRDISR
The target of the next assay is SRSF protein kinase 1 (Homo sapiens, UniProt Q96SB4). The class given is functional.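 Note: measured as one member of a kinome-wide kinase profiling panel.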
Chain of SRSF protein kinase 1 (Q96SB4 whole entry): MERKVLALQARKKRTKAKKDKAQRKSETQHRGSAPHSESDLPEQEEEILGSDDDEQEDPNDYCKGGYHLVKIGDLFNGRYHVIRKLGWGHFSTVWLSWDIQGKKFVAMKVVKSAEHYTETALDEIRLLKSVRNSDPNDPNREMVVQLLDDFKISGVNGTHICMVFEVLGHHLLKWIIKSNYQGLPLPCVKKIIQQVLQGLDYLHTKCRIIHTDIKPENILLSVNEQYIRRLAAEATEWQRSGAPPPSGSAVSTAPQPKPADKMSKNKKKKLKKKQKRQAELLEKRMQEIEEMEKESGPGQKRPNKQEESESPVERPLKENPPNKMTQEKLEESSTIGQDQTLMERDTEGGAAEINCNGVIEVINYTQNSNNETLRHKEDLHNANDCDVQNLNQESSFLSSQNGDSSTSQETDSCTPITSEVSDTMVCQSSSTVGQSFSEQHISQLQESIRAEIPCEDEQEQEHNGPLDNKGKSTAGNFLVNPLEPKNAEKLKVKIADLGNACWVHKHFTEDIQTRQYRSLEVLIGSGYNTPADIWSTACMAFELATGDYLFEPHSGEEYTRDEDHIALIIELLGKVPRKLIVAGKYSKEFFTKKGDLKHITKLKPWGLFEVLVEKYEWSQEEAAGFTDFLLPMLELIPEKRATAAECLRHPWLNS
For assay [7], the target named is Tyrosine-protein kinase JAK2 (Homo sapiens, UniProt O60674). The class given is functional.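 Note: JAK2 tested as one member of a kinase panel.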
Chain of Tyrosine-protein kinase JAK2 (O60674 whole entry): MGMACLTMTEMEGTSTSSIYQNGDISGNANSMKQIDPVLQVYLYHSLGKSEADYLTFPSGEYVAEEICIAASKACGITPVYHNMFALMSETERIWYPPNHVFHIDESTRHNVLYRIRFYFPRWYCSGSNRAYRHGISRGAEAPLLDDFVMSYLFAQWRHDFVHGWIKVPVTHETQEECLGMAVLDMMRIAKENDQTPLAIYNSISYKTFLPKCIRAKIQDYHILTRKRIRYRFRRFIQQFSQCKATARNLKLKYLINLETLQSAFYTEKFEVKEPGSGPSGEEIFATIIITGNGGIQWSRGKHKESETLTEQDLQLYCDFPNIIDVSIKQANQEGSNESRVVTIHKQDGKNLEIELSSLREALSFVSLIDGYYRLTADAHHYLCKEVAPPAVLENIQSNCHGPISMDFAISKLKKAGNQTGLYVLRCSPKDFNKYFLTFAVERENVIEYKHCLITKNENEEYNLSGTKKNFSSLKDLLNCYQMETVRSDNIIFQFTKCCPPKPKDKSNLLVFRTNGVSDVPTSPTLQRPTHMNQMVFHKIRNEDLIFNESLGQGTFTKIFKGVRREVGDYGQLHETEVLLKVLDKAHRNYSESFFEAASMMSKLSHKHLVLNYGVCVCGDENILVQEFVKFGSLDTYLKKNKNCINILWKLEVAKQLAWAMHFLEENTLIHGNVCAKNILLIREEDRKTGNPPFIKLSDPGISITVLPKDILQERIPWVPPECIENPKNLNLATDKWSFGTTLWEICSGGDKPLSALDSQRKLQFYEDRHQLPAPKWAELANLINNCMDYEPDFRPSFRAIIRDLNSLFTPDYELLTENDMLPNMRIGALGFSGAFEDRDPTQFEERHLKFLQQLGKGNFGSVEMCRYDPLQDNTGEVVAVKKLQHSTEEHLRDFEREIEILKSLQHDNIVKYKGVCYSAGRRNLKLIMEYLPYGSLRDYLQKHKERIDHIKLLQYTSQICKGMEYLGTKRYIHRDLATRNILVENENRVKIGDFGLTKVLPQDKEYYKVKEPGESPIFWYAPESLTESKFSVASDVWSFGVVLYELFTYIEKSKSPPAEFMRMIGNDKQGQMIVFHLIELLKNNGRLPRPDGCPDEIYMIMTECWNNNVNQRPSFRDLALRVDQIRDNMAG
Assay [8] deals with STE20-like serine/threonine-protein kinase (Homo sapiens, UniProt Q9H2G2). It is filed as functional.
Chain of STE20-like serine/threonine-protein kinase (Q9H2G2 whole entry): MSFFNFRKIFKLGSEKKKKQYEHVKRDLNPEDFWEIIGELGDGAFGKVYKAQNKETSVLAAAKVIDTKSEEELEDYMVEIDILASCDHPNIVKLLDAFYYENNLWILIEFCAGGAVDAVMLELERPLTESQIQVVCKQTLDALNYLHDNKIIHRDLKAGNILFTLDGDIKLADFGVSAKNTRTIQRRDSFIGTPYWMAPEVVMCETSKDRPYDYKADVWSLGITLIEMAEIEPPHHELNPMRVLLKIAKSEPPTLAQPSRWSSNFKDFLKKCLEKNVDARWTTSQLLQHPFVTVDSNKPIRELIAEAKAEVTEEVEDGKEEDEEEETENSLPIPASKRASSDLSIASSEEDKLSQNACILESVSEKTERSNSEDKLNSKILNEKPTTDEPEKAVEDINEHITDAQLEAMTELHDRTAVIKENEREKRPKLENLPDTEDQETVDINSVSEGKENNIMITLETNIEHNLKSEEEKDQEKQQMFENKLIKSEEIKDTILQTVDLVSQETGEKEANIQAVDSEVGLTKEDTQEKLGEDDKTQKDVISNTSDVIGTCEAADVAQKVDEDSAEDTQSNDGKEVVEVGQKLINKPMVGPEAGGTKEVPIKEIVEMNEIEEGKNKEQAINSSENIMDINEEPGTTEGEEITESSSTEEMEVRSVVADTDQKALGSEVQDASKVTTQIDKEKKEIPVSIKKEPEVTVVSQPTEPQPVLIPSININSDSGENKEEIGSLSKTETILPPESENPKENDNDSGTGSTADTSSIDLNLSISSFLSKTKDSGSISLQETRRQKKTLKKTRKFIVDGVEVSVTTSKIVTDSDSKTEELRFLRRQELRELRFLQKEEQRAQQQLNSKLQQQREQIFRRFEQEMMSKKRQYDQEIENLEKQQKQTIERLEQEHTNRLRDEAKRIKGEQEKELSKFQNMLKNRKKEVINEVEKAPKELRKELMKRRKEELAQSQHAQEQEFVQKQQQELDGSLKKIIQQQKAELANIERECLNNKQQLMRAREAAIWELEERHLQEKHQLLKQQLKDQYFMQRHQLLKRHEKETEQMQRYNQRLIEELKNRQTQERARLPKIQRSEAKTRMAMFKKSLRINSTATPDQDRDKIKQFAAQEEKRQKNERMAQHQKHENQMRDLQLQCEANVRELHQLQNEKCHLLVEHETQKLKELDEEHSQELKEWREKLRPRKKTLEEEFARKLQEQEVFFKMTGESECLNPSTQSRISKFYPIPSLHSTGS
Assay [9] addresses MAP kinase-activated protein kinase 5 (Homo sapiens, UniProt Q8IW41). It is filed as functional.
Assay [10] has as its target RAC-alpha serine/threonine-protein kinase (Homo sapiens, UniProt P31749). It is filed as functional.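 Note: AKT1 affinity measured as one member of a kinome-wide kinase profiling panel.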
Assay [11] in a line: cytotoxicity toward DRD oncogenic fibroblasts, dose response, cell-based, non-viral oncogenic, luminescence (AID 1934). It is filed as functional. As to conditions: Homo sapiens.
The target of assay [12] is T4, Type-1 angiotensin II receptor (Homo sapiens, UniProt P30556).
T4 sequence (P30556 whole entry): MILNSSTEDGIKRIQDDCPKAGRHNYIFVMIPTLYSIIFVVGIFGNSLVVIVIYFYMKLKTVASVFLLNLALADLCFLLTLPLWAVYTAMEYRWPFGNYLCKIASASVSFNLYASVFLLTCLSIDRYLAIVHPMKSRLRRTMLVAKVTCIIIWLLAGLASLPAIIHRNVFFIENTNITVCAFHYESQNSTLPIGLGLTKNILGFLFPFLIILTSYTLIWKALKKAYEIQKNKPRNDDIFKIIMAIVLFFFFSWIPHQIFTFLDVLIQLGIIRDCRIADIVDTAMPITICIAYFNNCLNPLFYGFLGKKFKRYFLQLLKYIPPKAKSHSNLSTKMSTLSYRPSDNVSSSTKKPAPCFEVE
Briefly: AT1 receptor antagonists, dose response, selectivity assay for APJ receptor antagonist project, cell-based, uHTS hits (AID 463214).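 Note: antagonist potency against angiotensin II stimulated AT1 response.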 It is filed as functional.

The target of a further assay is Beta-galactosidase (Escherichia coli, UniProt Q8VNN2). It is filed as functional.

As a reminder, the EC50 is the concentration needed to bring the measured effect to its halfway point. As usually defined, the IC50 is the midpoint of a concentration-inhibition curve. By Ki is commonly meant a measure of affinity in units of concentration, obtained from inhibition or displacement.

Active and inactive are the calls of the source.

Chain of MAP kinase-activated protein kinase 5 (Q8IW41 whole entry): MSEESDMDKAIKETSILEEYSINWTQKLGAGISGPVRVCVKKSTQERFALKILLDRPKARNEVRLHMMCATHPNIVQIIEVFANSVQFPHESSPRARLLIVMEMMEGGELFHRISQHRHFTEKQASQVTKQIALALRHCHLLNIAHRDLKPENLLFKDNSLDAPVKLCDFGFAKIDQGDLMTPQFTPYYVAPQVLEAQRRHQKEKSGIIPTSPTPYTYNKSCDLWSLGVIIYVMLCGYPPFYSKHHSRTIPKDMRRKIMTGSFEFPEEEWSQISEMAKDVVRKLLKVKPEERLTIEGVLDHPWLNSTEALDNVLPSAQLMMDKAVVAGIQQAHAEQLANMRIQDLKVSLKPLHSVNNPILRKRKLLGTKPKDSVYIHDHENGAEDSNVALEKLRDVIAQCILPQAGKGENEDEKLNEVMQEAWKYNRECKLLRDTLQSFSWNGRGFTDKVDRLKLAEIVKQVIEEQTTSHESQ
Chain of Tyrosine-protein kinase Lck (P06239 whole entry): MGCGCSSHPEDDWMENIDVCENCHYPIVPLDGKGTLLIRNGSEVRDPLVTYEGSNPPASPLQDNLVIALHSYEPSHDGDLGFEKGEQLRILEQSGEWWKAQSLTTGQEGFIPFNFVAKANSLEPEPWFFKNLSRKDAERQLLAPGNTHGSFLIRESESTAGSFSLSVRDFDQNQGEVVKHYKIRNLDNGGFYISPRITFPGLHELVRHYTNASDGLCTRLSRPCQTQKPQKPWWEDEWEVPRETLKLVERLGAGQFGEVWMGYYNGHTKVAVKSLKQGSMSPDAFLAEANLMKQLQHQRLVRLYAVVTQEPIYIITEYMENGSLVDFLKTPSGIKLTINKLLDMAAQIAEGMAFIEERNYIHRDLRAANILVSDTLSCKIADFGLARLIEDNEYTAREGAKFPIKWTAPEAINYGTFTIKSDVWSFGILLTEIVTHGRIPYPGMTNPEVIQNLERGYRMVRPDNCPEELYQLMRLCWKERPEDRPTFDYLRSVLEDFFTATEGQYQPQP

Take `O=C1C(Cl)=C(NCc2cccnc2)C(=O)c2ccccc21`: at Hexokinase HKDC1, the EC50 was 9.25 µM (active).

For `CN(C)c1ncc(C2=C(Cl)C(=O)C(N3CCCC3)=C(Cl)C2=O)s1`, in [1], the EC50 is 13.7 µM (active).

For the molecule `Cc1ccc(C(=O)c2c(C)oc3c2C(=O)C(=O)c2ccccc2-3)cc1`, the half-inhibitory concentration (IC50) in [2] was 2.2 µM (active).

Take `Cc1cnc(NC(=O)c2sc3ccccc3c2Cl)s1`: the IC50 was > 67.5 µM (inactive) in [3] and 3.14 µM (active) at Caspase-3.

Consider `O=C1C(O)=C/C(=N\c2ccccc2O)c2ccccc21`, for which the IC50 in the assay with HEK293 was > 20 µM (inactive).

Take `O=C1NC(=S)SC1=C1C(=O)Nc2ccc(Br)cc21`: the Ki in [4] was > 7.94 µM (inactive); in [5], > 2.51 µM (inactive); in assay [6], 7.94 µM (active); at SRSF protein kinase 1, 6.31 µM (active); in assay [7] it was > 1.58 µM (inactive); in assay [8], 1.26 µM (active). In addition, the Ki in [9] was > 1.58 µM (inactive); in assay [10] it was > 7.94 µM (inactive).

For `Cc1ccc(Nc2cc(C)nn2-c2nc(C)cc(O)n2)cc1`, the half-maximal effective concentration (EC50) is 22.4 µM (active) in assay [11] and > 31.5 µM (inactive) at Beta-galactosidase. Besides, the concentration for half-maximal inhibition (IC50) in assay [12] is 1.77 µM (active).
